Measurements taken from patent US12577197B2, “Methods of preparing N6-((2-azidoethoxy)carbonyl)lysine” (SANOFI, priority 2019, dated 2026).
Where “and” joins values, the source holds several entries; their conditions need not be identical. Equal entries are not always repeated. Values belong to the compound of their own block, whether it stands above or below them.

Columns and labels:
[1] = Time to maximum rate (TMR) estimated from phi factor corrected ARC data; assay type: physicochemical
From the text: Test data obtained from the ARC can be used to estimate the self-accelerating decomposition temperature of a sample (J. K. Wilberforce, “The Use of the Accelerating Rate calorimeter to determine the SADT of organic peroxides,” Columbia Scientific Industries, Milton Keynes; Harold G. Fisher and David D. Goetz, “Determination of self-accelerating decomposition temperature using the accelerating rate calorimeter,” J. Loss Prev. Process Ind., 1991, Vol 4., 305-316). Time to maximum rate (TMR) is defined as the amount of time that is needed for a reaction to reach its maximum self-heating rate or pressure rate in a thermal runaway reaction. TMR data was extracted from the phi factor corrected test data and a plot of Ln(TMR) against −1000/T was generated (FIG. 4).
The following equation was taken from FIG. 4 to allow the determination of the time to maximum rate as a function of temperature: Ln(TMR(s))=−16.389*(−1000/(T(K)))−29.262 The TMR increases as the batch temperature decreases. The measured exotherm was used to estimate the TMR. The results are provided only as a reference, as it is based on a single ARC test and not a detailed kinetic study (FIG. 5).

[2] = Accelerating rate calorimetry (ARC) study, heat-wait-search mode; settings: for Onset temperature of exotherm / Onset of exothermic activity: HWS mode, adiabatic, air, titanium bomb; for ΔT adiabatic / Adiabatic Temperature Rise (phi corrected): phi factor 1.6684
[3] = Effect of pH on solubility in water (HPLC of supernatant); assay type: physicochemical
Procedure: To further purify N^6-((2-azidoethoxy)carbonyl)-L-lysine (Formula (VIa)), a suspension of N^6-((2-azidoethoxy)carbonyl)-L-lysine (Formula (VIa)) in water was prepared, followed by addition of HC1 to form a solution. Neutralization of the resulting solution with ammonium hydroxide reprecipitates the product and further purges the material of residual impurities, which remain in solution. In order to improve product yield, the effect of pH on the solubility of N^6-((2-azidoethoxy)carbonyl)-L-lysine (Formula (VIa)) was examined. Briefly, this study involved suspending N^6-((2-azidoethoxy)carbonyl)-L-lysine (Formula (VIa)) in water, progressively basifying the mixture, and determining the amount of N^6-((2-azidoethoxy)carbonyl)-L-lysine (Formula (VIa)) in the supernatant as a function of pH.
N^6-((2-azidoethoxy)carbonyl)-L-lysine (Formula (VIa)) (0.95 g) was charged into a 20 mL glass scintillation vial along with water (7.2 g). The resulting suspension was thoroughly mixed on a vortex apparatus for 60 seconds, then allowed to settle for 5 minutes. The pH of the supernatant was measured at 4.44 and an aliquot was taken and diluted with HPLC eluent (H2O:CH3CN 1:1, 0.1% TFA). The sample was analyzed by HPLC (column: ACE Excel 3 Super C18, 4.6×150 mm, 3.0 μm, flow rate: 1.2 mL/min, phase A: 0.1% TFA in water, phase B: 0.1% TFA in acetonitrile) and the content of N^6-((2-azidoethoxy)carbonyl)-L-lysine (Formula (VIa)) was calculated based on HPLC analysis of Formula (VIa) standards.
The contents of the scintillation vial were basified by addition of a drop of 28-30% ammonium hydroxide, and the suspension was vortexed, allowed to decant, and the supernatant was again sampled and analyzed by HPLC.

Time to maximum rate (TMR) ([1]; 122.0 ° C.): 48.3 h
Time to maximum rate (TMR) ([1]; 129.0 ° C.): 23.5 h
Time to maximum rate (TMR) ([1]; 140.0 ° C.): 7.9 h
Time to maximum rate (TMR) ([1]; 160.0 ° C. (onset temperature of 2nd exotherm)): 1.3 h
Maximum pressure of test [2]: 157.1 Bar gauge
Maximum pressure rate of test [2]: 2.756 Bar min^−1
Maximum self-heating rate of test [2]: 2.10 K min^−1
Temperature at maximum pressure rate [2]: 208.5 °C
Temperature at maximum self-heat rate [2]: 211.5 °C
Final temperature of exotherm / End of exothermic activity ([2]; 1st exotherm): 100.79 °C
ΔT ([2]; 1st exotherm): 0.65 °C
Onset temperature of exotherm / Onset of exothermic activity ([2]; 1st exotherm): 100.14 °C
ΔT adiabatic / Adiabatic Temperature Rise (phi corrected) ([2]; 1st exotherm): 1.08 °C
ΔH reaction ([2]; 1st exotherm, sample heat capacity estimated 2.10): −2.27 Joule/gram
Onset temperature of exotherm / Onset of exothermic activity ([2]; 2nd (major) exotherm): 160.5 °C and 160.48 °C
Final temperature of exotherm / End of exothermic activity ([2]; 2nd exotherm): 227.19 °C
ΔT ([2]; 2nd exotherm): 66.71 °C
ΔT adiabatic / Adiabatic Temperature Rise (phi corrected) ([2]; 2nd exotherm): 111.29 °C
ΔH reaction ([2]; 2nd exotherm, sample heat capacity estimated 2.10): −233.71 Joule/gram
Heat of reaction (exothermic) ([2]; Exotherm 1): -2.27 J/g
Heat of reaction (exothermic) ([2]; Exotherm 2): -233.71 J/g
ΔH reaction ([2]; Value column (both exotherms together)): −235.99 Joule/gram
non-condensable gas remained in the bomb after completion of the test ([2]; after cooling to near ambient temperature at 30.7° C.): 35.5 Bar gauge
Total heat released during the ARC test (all exotherms) ([2]; all exotherms): -235.98 J/g
maximum pressure rate ([2]; at 208.5° C.): 2.756 bar/min
maximum self-heat rate recorded ([2]; at 211.5° C.): 2.098 K/min
thermal hazard in preparing the compound ([2]; conclusion from ARC and TMR data): no significant thermal hazard
Maximum temperature of test ([2]; test stopped by pressure trip): 379.2 °C
total heat of the two exotherms ([2]; two exotherms): 236.0 J/g
Structure (SMILES): CC(C)(C)OC(=O)N[C@@H](CCCCNC(=O)OCCN=[N+]=[N-])C(=O)OC(C)(C)C [Formula (IIIa)]

Amount of Formula (VIa) in supernatant ([3]; Supernatant 1, pH 4.44, 0.95 g suspended in 7.2 g water): 36 mg
Amount of Formula (VIa) in supernatant ([3]; Supernatant 2, pH 8.13, basified with ammonium hydroxide): 37 mg
Amount of Formula (VIa) in supernatant ([3]; Supernatant 3, pH 8.58): 38 mg
Amount of Formula (VIa) in supernatant ([3]; Supernatant 4, pH 8.73): 40 mg
Amount of Formula (VIa) in supernatant ([3]; Supernatant 5, pH 8.86): 42 mg
Amount of Formula (VIa) in supernatant ([3]; Supernatant 6, pH 9.00): 44 mg
Amount of Formula (VIa) in supernatant ([3]; Supernatant 7, pH 9.26): 44 mg
Structure (SMILES): [N-]=[N+]=NCCOC(=O)NCCCC[C@H](N)C(=O)O [Formula (VIa), N^6-((2-azidoethoxy)carbonyl)-L-lysine]
amount of product in supernatant of a saturated aqueous solution ([3]; pH range from 4 to 8): roughly the same amount of product in its supernatant
